Results as given in patent US10538555B2, “Macrocyclic inhibitors of the PD-1/PD-L1 and CD80(B7-1)/PD-L1 protein/protein interactions” (BRISTOL-MYERS SQUIBB COMPANY, priority 2014, dated 2020).
*1 amine or outer side, *2 acyl side, *3 side chain or, on linkers, in order; H or OH if unused. Where a SMILES comes first, the peptide text is derived from it. Bridges are numbered along the chain shown (N, C = ends). [ ]: non-standard residue; d: D form. ξ: configuration not given here. X11 = CCCC[C@@H](C(=O)C1C[C@H](O)C[C@@H]1C(=O)[*:2])N(C)[*:1]; Phe(4-NO2) = N[C@@H](Cc1ccc([N+](=O)[O-])cc1)C(=O)O; Phe(3,4,5-F3) = N[C@@H](Cc1cc(F)c(F)c(F)c1)C(=O)O; Phe(3,4-Cl2) = N[C@@H](Cc1ccc(Cl)c(Cl)c1)C(=O)O; NMeAla(4-thiazolyl) = CN[C@@H](Cc1cscn1)C(=O)O; Trp(7-aza) = N[C@@H](Cc1c[nH]c2ncccc12)C(=O)O; ξαMeW = CC(N)(Cc1c[nH]c2ccccc12)C(=O)O; Bta = N[C@@H](Cc1csc2ccccc12)C(=O)O; NMe3Pal = CN[C@@H](Cc1cccnc1)C(=O)O; NMeF = CN[C@@H](Cc1ccccc1)C(=O)O; X1 = O=C([C@H]1COCCN1[*:1])[*:2]; 3Pal = N[C@@H](Cc1cccnc1)C(=O)O; 4Pal = N[C@@H](Cc1ccncc1)C(=O)O; NMeNle = CCCC[C@H](NC)C(=O)O; dPip = O=C(O)[C@H]1CCCCN1; Orn = NCCC[C@H](N)C(=O)O; dAze = O=C(O)[C@H]1CCN1; Sar = CNCC(=O)O

The compounds below were run against T1, Human PD-L1/PD-1 (Homo sapiens, UniProt Q9NZQ7) (assay: HTRF Human PD-L1/PD-1 binding assay (PD-1-Ig/PD-L1-His)). Conditions: PD-L1-His 10 nM, PD-1-Ig 20 nM; class symbol; read-out: HTRF Human PD-L1/PD-1 Binding Assay IC50 Range.
T1 construct: TVMV protease cleavage site (C); made in house; host or cells: HEK293T cells
How it was run: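 Compound preincubated 15 min with PD-L1-His (10 nM final), then PD-1-Ig (20 nM final) added for 15 min in dPBS with 0.1% BSA and 0.05% Tween-20. Detection by Eu-cryptate anti-Ig (1 nM) and APC anti-His (20 nM) after 30 min; 665/620 nm HTRF ratio. Proteins expressed in HEK293T.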

T1 sequence (Q9NZQ7 with tags, fused parts or gaps): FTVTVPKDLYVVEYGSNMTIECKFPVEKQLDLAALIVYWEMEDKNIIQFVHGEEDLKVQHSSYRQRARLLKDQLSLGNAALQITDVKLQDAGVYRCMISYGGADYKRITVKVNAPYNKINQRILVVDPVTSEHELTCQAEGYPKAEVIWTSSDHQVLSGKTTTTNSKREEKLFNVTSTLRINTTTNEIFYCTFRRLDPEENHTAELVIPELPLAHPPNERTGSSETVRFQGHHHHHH

| IC50 | Structure (SMILES) |
| --- | --- |
| 10 to 99.9 nM | CCCC[C@H]1C(=O)N(C)CC(=O)N[C@@H](CC(N)=O)C(=O)N[C@@H](C(C)C)C(=O)N(C)[C@@H](Cc2ccccc2)C(=O)N[C@@H](Cc2ccc(O)cc2)C(=O)N(C)CC(=O)N[C@@H](Cc2c[nH]c3ncccc23)C(=O)N[C@@H](Cc2ccc(O)cc2)C(=O)N[C@@H](CC(C)C)C(=O)N[C@H](C(=O)NCC(N)=O)CSCC(=O)N[C@@H](Cc2ccccc2)C(=O)N(C)[C@@H](Cc2ccccc2)C(=O)N1C [Example 3241] ({CH2CO}-F[NMeF][NMeNle][Sar]NV[NMeF]Y[Sar][Trp(7-aza)]YLCG-NH2; thioether N-13) |
| 100 to 990 nM | CCCC[C@H]1C(=O)N(C)CC(=O)N[C@@H](CC(=O)O)C(=O)N[C@@H](C(C)C)C(=O)N(C)[C@@H](Cc2ccccc2)C(=O)N[C@@H](Cc2ccc(O)cc2)C(=O)N(C)CC(=O)N[C@@H](Cc2c[nH]c3ccccc23)C(=O)N[C@@H](Cc2ccc(O)cc2)C(=O)N[C@@H](CC(C)C)C(=O)N[C@H](C(=O)NCC(N)=O)CSCC(=O)N[C@@H](Cc2ccncc2)C(=O)N(C)[C@@H](Cc2ccccc2)C(=O)N1C [Example 3242] ({CH2CO}-[4Pal][NMeF][NMeNle][Sar]DV[NMeF]Y[Sar]WYLCG-NH2; thioether N-13) |
| 10 to 99.9 nM | CCCC[C@H]1C(=O)N(C)CC(=O)N[C@@H](CC(=O)O)C(=O)N[C@@H](C(C)C)C(=O)N(C)[C@@H](Cc2ccccc2)C(=O)N[C@@H](Cc2ccc(O)cc2)C(=O)N(C)CC(=O)N[C@@H](Cc2c[nH]c3ccccc23)C(=O)N[C@@H](Cc2ccc(O)cc2)C(=O)N[C@@H](CC(C)C)C(=O)N[C@H](C(=O)NCC(N)=O)CSCC(=O)N[C@@H](Cc2cccnc2)C(=O)N(C)[C@@H](Cc2ccccc2)C(=O)N1C [Example 3243] ({CH2CO}-[3Pal][NMeF][NMeNle][Sar]DV[NMeF]Y[Sar]WYLCG-NH2; thioether N-13) |
| 10 to 99.9 nM | CCCC[C@H]1C(=O)N(C)CC(=O)N[C@@H](CC(=O)O)C(=O)N[C@@H](C(C)C)C(=O)N(C)[C@@H](Cc2ccccc2)C(=O)N[C@@H](Cc2ccc(O)cc2)C(=O)N(C)CC(=O)N[C@@H](Cc2c[nH]c3ccccc23)C(=O)N[C@@H](Cc2ccc(O)cc2)C(=O)N[C@@H](CC(C)C)C(=O)N[C@H](C(=O)NCC(N)=O)CSCC(=O)N[C@@H](Cc2ccc([N+](=O)[O-])cc2)C(=O)N(C)[C@@H](Cc2ccccc2)C(=O)N1C [Example 3244] ({CH2CO}-[Phe(4-NO2)][NMeF][NMeNle][Sar]DV[NMeF]Y[Sar]WYLCG-NH2; thioether N-13) |
| 1000 to 10000 nM | CCCC[C@H]1C(=O)N(C)CC(=O)N[C@@H](CC(=O)O)C(=O)N[C@@H](C(C)C)C(=O)N(C)[C@@H](Cc2ccccc2)C(=O)N[C@@H](Cc2ccc(O)cc2)C(=O)N(C)CC(=O)N[C@@H](Cc2c[nH]c3ccccc23)C(=O)N[C@@H](Cc2ccc(O)cc2)C(=O)N[C@@H](CC(C)C)C(=O)N[C@H](C(=O)NCC(N)=O)CSCC(=O)N[C@@H](Cc2csc3ccccc23)C(=O)N(C)[C@@H](Cc2ccccc2)C(=O)N1C [Example 3245] ({CH2CO}-[Bta][NMeF][NMeNle][Sar]DV[NMeF]Y[Sar]WYLCG-NH2; thioether N-13) |
| 10 to 99.9 nM | CCCC[C@H]1C(=O)N(C)CC(=O)N[C@@H](CC(=O)O)C(=O)N[C@@H](C(C)C)C(=O)N(C)[C@@H](Cc2ccccc2)C(=O)N[C@@H](Cc2ccc(O)cc2)C(=O)N(C)CC(=O)N[C@@H](Cc2c[nH]c3ccccc23)C(=O)N[C@@H](Cc2ccc(O)cc2)C(=O)N[C@@H](CC(C)C)C(=O)N[C@H](C(=O)NCC(N)=O)CSCC(=O)N[C@@H](Cc2ccc(Cl)c(Cl)c2)C(=O)N(C)[C@@H](Cc2ccccc2)C(=O)N1C [Example 3246] ({CH2CO}-[Phe(3,4-Cl2)][NMeF][NMeNle][Sar]DV[NMeF]Y[Sar]WYLCG-NH2; thioether N-13) |
| 10 to 99.9 nM | CCCC[C@H]1C(=O)N(C)CC(=O)N[C@@H](CC(N)=O)C(=O)N[C@@H](C(C)C)C(=O)N(C)[C@@H](Cc2ccccc2)C(=O)N[C@@H](Cc2ccc(O)cc2)C(=O)N(C)CC(=O)N[C@@H](Cc2c[nH]c3ccccc23)C(=O)N[C@@H](Cc2ccc(O)cc2)C(=O)N[C@@H](CCCN)C(=O)N[C@H](C(=O)NCC(N)=O)CSCC(=O)N[C@@H](Cc2ccccc2)C(=O)N(C)[C@@H](Cc2cccnc2)C(=O)N1C [Example 3614] ({CH2CO}-F[NMe3Pal][NMeNle][Sar]NV[NMeF]Y[Sar]WY[Orn]CG-NH2; thioether N-13) |
| 10 to 99.9 nM | CCCC[C@H]1C(=O)N(C)CC(=O)N[C@@H](CC(N)=O)C(=O)N[C@@H](C(C)C)C(=O)N(C)[C@@H](Cc2ccccc2)C(=O)N[C@@H](Cc2ccc(O)cc2)C(=O)N(C)CC(=O)N[C@@H](Cc2c[nH]c3ccccc23)C(=O)N[C@@H](Cc2ccc(O)cc2)C(=O)N[C@@H](CCCN)C(=O)N[C@H](C(=O)NCC(N)=O)CSCC(=O)N[C@@H](Cc2ccccc2)C(=O)N(C)[C@@H](Cc2cscn2)C(=O)N1C [Example 3616] ({CH2CO}-F[NMeAla(4-thiazolyl)][NMeNle][Sar]NV[NMeF]Y[Sar]WY[Orn]CG-NH2; thioether N-13) |
| 1000 to 10000 nM | CCCC[C@H]1C(=O)N(C)CC(=O)N[C@@H](CC(=O)O)C(=O)N[C@@H](C(C)C)C(=O)N[C@@H](Cc2ccccc2)C(=O)N[C@@H](Cc2ccc(O)cc2)C(=O)N(C)CC(=O)NC(C)(Cc2c[nH]c3ccccc23)C(=O)N[C@@H](Cc2ccc(O)cc2)C(=O)N[C@@H](CC(C)C)C(=O)N[C@H](C(=O)NCC(N)=O)CSCC(=O)N[C@@H](Cc2ccccc2)C(=O)N(C)[C@@H](Cc2ccccc2)C(=O)N1C (stereo partly drawn) [Example 3639] ({CH2CO}-F[NMeF][NMeNle][Sar]DVFY[Sar][ξαMeW]YLCG-NH2; thioether N-13) |
| 10 to 99.9 nM | CCCC[C@H]1C(=O)N2CCCC[C@@H]2C(=O)N[C@@H](CC(=O)O)C(=O)N[C@@H](C(C)C)C(=O)N(C)[C@@H](Cc2ccccc2)C(=O)N[C@@H](CCC(=O)O)C(=O)N2CCOC[C@@H]2C(=O)N[C@@H](Cc2c[nH]c3ccccc23)C(=O)N[C@@H](Cc2ccc(O)cc2)C(=O)N[C@@H](CCCN)C(=O)N[C@H](C(=O)NCC(N)=O)CSCC(=O)N[C@@H](Cc2cc(F)c(F)c(F)c2)C(=O)N(C)[C@@H](Cc2ccccc2)C(=O)N1C [Example 3641] ({CH2CO}-[Phe(3,4,5-F3)][NMeF][NMeNle][dPip]DV[NMeF]E[X1]WY[Orn]CG-NH2; thioether N-13) |
| 10 to 99.9 nM | CCCC[C@H]1C(=O)C2C[C@H](O)C[C@@H]2C(=O)N[C@@H](CC(=O)O)C(=O)N[C@@H](C(C)C)C(=O)N(C)[C@@H](Cc2ccccc2)C(=O)N[C@@H](CCC(=O)O)C(=O)N2CCCC[C@@H]2C(=O)N[C@@H](Cc2c[nH]c3ccccc23)C(=O)N[C@@H](Cc2ccc(O)cc2)C(=O)N[C@@H](CCCN)C(=O)N[C@H](C(=O)NCC(N)=O)CSCC(=O)N[C@@H](Cc2cc(F)c(F)c(F)c2)C(=O)N(C)[C@@H](Cc2ccccc2)C(=O)N1C (stereo partly drawn) [Example 3642] ({CH2CO}-[Phe(3,4,5-F3)][NMeF][X11]DV[NMeF]E[dPip]WY[Orn]CG-NH2; thioether N-12) |
| 10 to 99.9 nM | CCCC[C@H]1C(=O)N2CC[C@@H]2C(=O)N[C@@H](CC(=O)O)C(=O)N[C@@H](C(C)C)C(=O)N(C)[C@@H](Cc2ccccc2)C(=O)N[C@@H](CCC(=O)O)C(=O)N2CCOC[C@@H]2C(=O)N[C@@H](Cc2c[nH]c3ccccc23)C(=O)N[C@@H](Cc2ccc(O)cc2)C(=O)N[C@@H](CCCN)C(=O)N[C@H](C(=O)NCC(N)=O)CSCC(=O)N[C@@H](Cc2cc(F)c(F)c(F)c2)C(=O)N(C)[C@@H](Cc2ccccc2)C(=O)N1C [Example 3643] ({CH2CO}-[Phe(3,4,5-F3)][NMeF][NMeNle][dAze]DV[NMeF]E[X1]WY[Orn]CG-NH2; thioether N-13) |
